Measured values taken from PubChem BioAssay (NCI).
Several values for one entry are separate records, joined by “and”; a condition that tells them apart may be missing. Equal values may be shown once.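 Briefly, cells in 96-well plates were exposed to five compound concentrations for 48 h, and endpoints were estimated by linear interpolation. GI50 = concentration required for 50% inhibition of growth. TGI is the concentration that stops growth completely.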

Columns and labels:
Experiment in all cases: NCI tumour cell line growth inhibition, 48 h
[1] = test system: DLD-1 colon
[2] = test system: DMS 114 small cell lung
[3] = test system: KM20L2 colon
[4] = test system: LXFL 529 NSCLC
[5] = test system: M19-MEL melanoma
[6] = test system: SNB-78 CNS
[7] = test system: XF 498 CNS
[8] = test system: RXF-631 renal
[9] = test system: MDA-N
[10] = test system: SN12K1 renal
[11] = test system: P388 leukemia
[12] = test system: P388/ADR leukemia

Structure (SMILES)	TGI [1] [µM]	TGI [2]	TGI [3]	TGI [4] [µM]	TGI [5]	TGI [6] [µM]	TGI [7] [µM]	TGI [8] [µM]	also measured
CC(C)(C)OP(=O)(OC(C)(C)C)C(O)c1ccc(/C=C(\C#N)C(N)=O)cc1 (stereo not given)	> 100	> 100 µM	> 100 µM	> 100	> 100 µM	> 100	> 100		
CCCCCCCCCC[C@@H](O)[C@@H]1CC[C@@H]([C@@H]2CC[C@@H]([C@@H](O)CCCCCCCCCC[C@H](O)CC3=CC(C)OC3=O)O2)O1 (stereo not given in full)	> 100	11.2 µM	> 100 µM	25.6	> 100 µM	56.2		19.4	
S=c1o[nH]c(-c2ccccc2)c1C=Nc1ccccc1	> 100	> 100 µM		> 100		> 100	> 100		
COC(=O)c1cccc2c3ccccc3c3ccccc3c12	> 100	94.7 µM	> 100 µM	85.2	> 100 µM				
CCCCCCCCOCC(O)CO (stereo not given)	> 100	> 100 µM	> 100 µM	> 100	> 100 µM	> 100	> 100	> 100	
CC1=CC(C)(c2c[nH]c3ccccc23)CC(C)(C)c2c1[nH]c1ccccc21 (stereo not given)	27.2	36.5 µM	31.4 µM	> 100	43.7 µM	> 100	72.1	31.8	
C=C1C(=O)OC2C1C(OC(=O)/C(C)=C/C)CC(O)(CCl)C1C(O)C=C(C)C21O (stereo not given)									TGI [9]: 37.3 µM
CC1(C)CCCC2(C)C3C(O)CC2(C)C(O)C31 (stereo not given)	> 100	> 100 µM	> 100 µM	> 100	> 100 µM	> 100	> 100		
N#Cc1c(-c2ccccc2)cc(-c2ccc(N)cc2)[nH]c1=O	> 100	> 100 µM	> 100 µM	> 100	> 100 µM	> 100		> 100	
Cc1ccccc1NC(=O)/C=N/O	> 100	> 100 µM	32 µM	> 100	> 100 µM				
Cc1ccc(S(=O)(=O)N/N=C(\c2nc3ccc([N+](=O)[O-])cc3[nH]c2=O)C(O)c2ccc([N+](=O)[O-])cc2)cc1 (stereo not given)	> 100	> 100 µM	> 100 µM	> 100	> 100 µM	> 100	> 100		
OB(O)c1ccccc1C#Cc1ccccc1B(O)O									TGI [9]: 58.4 µM
Nc1ccc(-c2cc(C(=O)Nc3nccs3)[nH]c(=S)n2)cc1	> 100	> 100 µM	> 100 µM	> 100	> 100 µM	> 100	> 100		
O=C1C(=C2CCCC2)CCC1CN1CCCCC1 (stereo not given)		41.2 µM	32.9 µM	26.2	> 100 µM	41.4			
CCCCC(C)/C=C/C(=O)C1=C(O)/C(=C/C(=O)O)OC1=O (stereo not given)		> 100 µM	> 100 µM	> 100		> 100	> 100	> 100	
O=C1CC(c2c(-c3ccccc3)[nH]c3ccccc23)C(=O)N1c1ccccc1 (stereo not given)	> 100	> 100 µM	> 100 µM	> 100	> 100 µM	> 100	> 100	> 100	
c1ccc(CN2CCc3[nH]c4ccccc4c3C2)cc1	> 100	47.3 µM	26.3 µM	48.6	> 82.1 µM	> 100	68.6	38.5	TGI [9]: 44 µM; TGI [10]: 29.1 µM
C=CC(COC(=O)C(C)(C)OC(C)=O)c1ccc(OC(=O)C(C)C)c(OC)c1 (stereo not given)									TGI [9]: 14 µM
Cc1ccc(S(=O)(=O)NC(=O)NCCc2ccccc2)cc1	> 100	> 100 µM	> 100 µM	> 100	> 100 µM	> 100	> 100		

Structure (SMILES)	TGI [1] [µM]	TGI [2]	TGI [3]	TGI [4] [µM]	TGI [5]	TGI [6] [µM]	TGI [7] [µM]	TGI [8] [µM]	also measured
C[C@H]1C/C=C/[C@H]2[C@@H]3O[C@]3(C)[C@@H](C)[C@H]3[C@H](Cc4ccccc4)NC(=O)[C@]32OC(=O)O/C=C/[C@@](C)(O)C1=O		9.99 µM and 20.2 µM and 33.3 µM	> 92.3 µM and 125 µM and > 250 µM		24.2 µM and 38.9 µM and 56.8 µM				GI50 [2]: 0.0706 µM and 0.025 µM; GI50 [3]: 0.0125 µM; GI50 [5]: 0.0356 µM and 0.025 µM; TGI [9]: 54 µM; TGI [11]: 15.3 µM and 125 µM and 45.6 µM; GI50 [12]: 0.434 µM and 0.194 µM and 0.69 µM; TGI [12]: 10.5 µM and 14 µM and 40.9 µM; GI50 [10]: 0.0125 µM; GI50 [6]: 0.024 µM and 0.025 µM; GI50 [7]: < 0.025 µM
C[N+](C)(C)CC1CCC(C[N+](C)(C)C)C1=O (stereo not given)	> 100	6.74 µM	9.78 µM	1.57	3.83 µM	5.26	3.74	36.4	TGI [9]: 19.3 µM
O=c1c2ccccc2[nH]c2c(O)ccc(O)c12		42.5 µM	> 100 µM	28.5	63.6 µM	39.6	30.9	51.5	
CCOC(=O)C1C=C2O[C@@H]3OC4(CCCCC4)O[C@@H]3C2C2C(=O)CCC(=O)[C@@]12C(=O)OC (stereo not given in full)	> 100	> 100 µM	> 100 µM	> 100	> 100 µM	> 100	> 100	> 100	
Cc1cccc(C)c1NC(=O)CCC/C(CC(=O)c1ccc(F)cc1)=N\NC(=O)C(=O)NN	> 100	> 100 µM	> 100 µM	> 100	> 100 µM	> 100	> 100	> 100	
O=[P+](O)c1ccccn1	> 100	> 100 µM	> 100 µM	> 100	> 100 µM	> 100	> 100		
C1OC1CN1CCN(CC2CO2)CC1 (stereo not given)	> 100	> 100 µM	> 100 µM	> 100	> 100 µM	> 100	> 100		
Cc1coc2c1C(=O)C(=O)c1ccccc1-2	4.26	0.326 µM	11.2 µM	1.41		3.13			
NC(=S)N=Nc1c(O)[nH]c2c(Cl)cc(Cl)cc12									TGI [9]: 35.1 µM
O=C(O)C1CC=CCC1C(=O)Nc1cccc(O)c1 (stereo not given)									TGI [9]: > 100 µM
Cn1c(=O)nc2n(-c3ccc(Cl)cc3)c(-c3ccccc3)c(-c3ccccc3)nc-2c1=O	> 100	> 100 µM	> 100 µM	> 100		> 100	42.2	> 100	
Cc1cc(N(CCC#N)CCC#N)ccc1N=Nc1cc(Cl)ccc1Cl	26.1	22.9 µM		3.35	26.6 µM	22			
CN(C)CCC(/C=C/c1ccccc1)=N\Nc1ccc(Cl)c(Cl)c1	11		4.54 µM	4.13	15 µM	15.4	7.23	6.73	
CCC/C=C\C=C\C1(NS(=O)(=O)c2ccc(C)cc2)CCC(C(C)(C)C)CC1 (stereo not given)	45.3		35.6 µM	> 100	44.9 µM	72.3	35.7		
C/C(=N\NC(N)=S)c1ccc(C)c(C)c1	> 100	38.3 µM	> 100 µM	> 100	> 100 µM	> 100	48.1	> 100	
Cc1cccc(C)c1NC(=O)CCc1nnc2s/c(=C\c3ccc(N(C)C)cc3)c(=O)n12	> 100	> 100 µM	> 100 µM	> 100		> 100	> 100	> 100	
O=C1/C(=C/c2ccc3c(c2)OCCO3)CCC/C1=C\c1ccc2c(c1)OCCO2	48.4		37.5 µM	> 100	81.9 µM	> 100			
O=c1c2cc(Br)cc(Br)c2nc(CCCl)n1-c1ccc(O)c([N+](=O)[O-])c1	36.6	36.3 µM		30.3	29.8 µM	62.3			
CCc1cccc(C(C)C)c1NC(=O)CCl	> 100		> 100 µM	> 100	> 100 µM	> 100	> 100	37.4	
